Experimental data from the supplement of paper PMC10307832.

Tests used:
Experiment in all cases: relative viability (nuclei count vs DMSO), 5 days (fraction); higher = more cells survive
A-427 = system: A-427
Summary of the method: (§1)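 Relative viability divides the nuclei count in treated wells by that in vehicle wells. Lung cancer cell lines were seeded in 1536-well plates, dosed by pin tool the next day, and fixed and stained after 5 days in one step with final 0.05% Triton X-100, 1% formaldehyde and 1 ug/ml Hoechst. Dosing was a single drug or a fixed anchor-drug dose plus five library-drug doses (not always all listed) in √10 steps, and values are medians of duplicate plates imaged at 4×.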

BEN = system: BEN
Summary of the method: as §1

CAL-12T = system: CAL-12T
Summary of the method: as §1

COR-L 105 = system: COR-L 105
Summary of the method: as §1

ChaGo-K-1 = system: ChaGo-K-1
Summary of the method: as §1

EPLC-272H = system: EPLC-272H
Summary of the method: as §1

HOP-62 = system: HOP-62
Summary of the method: as §1

LCLC-103H = system: LCLC-103H
Summary of the method: as §1

LU99A = system: LU99A
Summary of the method: as §1

LXF-289 = system: LXF-289
Summary of the method: as §1

NCI-H1395 = system: NCI-H1395
Summary of the method: as §1

NCI-H1650 = system: NCI-H1650
Summary of the method: as §1

NCI-H1666 = system: NCI-H1666
Summary of the method: as §1

NCI-H1793 = system: NCI-H1793
Summary of the method: as §1

NCI-H1975 = system: NCI-H1975
Summary of the method: as §1

NCI-H1993 = system: NCI-H1993
Summary of the method: as §1

NCI-H2009 = system: NCI-H2009
Summary of the method: as §1

NCI-H2342 = system: NCI-H2342
Summary of the method: as §1

NCI-H2347 = system: NCI-H2347
Summary of the method: as §1

NCI-H358 = system: NCI-H358
Summary of the method: as §1

NCI-H441 = system: NCI-H441
Summary of the method: as §1

NCI-H460 = system: NCI-H460
Summary of the method: as §1

NCI-H650 = system: NCI-H650
Summary of the method: as §1

NCI-H727 = system: NCI-H727
Summary of the method: as §1

SK-MES-1 = system: SK-MES-1
Summary of the method: as §1

## Nc1cccc2c1CN(C1CCC(=O)NC1=O)C2=O (configuration not stated) [Lenalidomide] + CC(=O)Nc1cccc(-n2c(=O)n(C3CC3)c(=O)c3c(Nc4ccc(I)cc4F)n(C)c(=O)c(C)c32)c1 [Trametinib] (partner 0.02 µM)
A-427; first compound 0.253 µM
  relative viability: 0.731
A-427; first compound 0.8 µM
  relative viability: 0.724
A-427; first compound 2.53 µM
  relative viability: 0.825
A-427; first compound 8 µM
  relative viability: 0.765
BEN; first compound 0.253 µM
  relative viability: 1.1
BEN; first compound 0.8 µM
  relative viability: 1.07
BEN; first compound 2.53 µM
  relative viability: 1.18
BEN; first compound 8 µM
  relative viability: 0.913
CAL-12T; first compound 0.253 µM
  relative viability: 0.371
CAL-12T; first compound 0.8 µM
  relative viability: 0.292
CAL-12T; first compound 2.53 µM
  relative viability: 0.431
CAL-12T; first compound 8 µM
  relative viability: 0.306
COR-L 105; first compound 0.253 µM
  relative viability: 0.493
COR-L 105; first compound 0.8 µM
  relative viability: 0.471
COR-L 105; first compound 2.53 µM
  relative viability: 0.462
COR-L 105; first compound 8 µM
  relative viability: 0.416
ChaGo-K-1; first compound 0.253 µM
  relative viability: 0.925
ChaGo-K-1; first compound 0.8 µM
  relative viability: 0.897
ChaGo-K-1; first compound 2.53 µM
  relative viability: 1.02
ChaGo-K-1; first compound 8 µM
  relative viability: 0.904
EPLC-272H; first compound 0.253 µM
  relative viability: 0.284
EPLC-272H; first compound 0.8 µM
  relative viability: 0.272
EPLC-272H; first compound 2.53 µM
  relative viability: 0.34
EPLC-272H; first compound 8 µM
  relative viability: 0.313
HOP-62; first compound 0.253 µM
  relative viability: 0.34
HOP-62; first compound 0.8 µM
  relative viability: 0.338
HOP-62; first compound 2.53 µM
  relative viability: 0.4
HOP-62; first compound 8 µM
  relative viability: 0.363
LCLC-103H; first compound 0.253 µM
  relative viability: 0.687
LCLC-103H; first compound 0.8 µM
  relative viability: 0.623
LCLC-103H; first compound 2.53 µM
  relative viability: 0.656
LCLC-103H; first compound 8 µM
  relative viability: 0.617
LU99A; first compound 0.253 µM
  relative viability: 0.509
LU99A; first compound 0.8 µM
  relative viability: 0.537
LU99A; first compound 2.53 µM
  relative viability: 0.644
LU99A; first compound 8 µM
  relative viability: 0.425
LXF-289; first compound 0.253 µM
  relative viability: 0.661
LXF-289; first compound 0.8 µM
  relative viability: 0.604
LXF-289; first compound 2.53 µM
  relative viability: 0.671
LXF-289; first compound 8 µM
  relative viability: 0.691
NCI-H1395; first compound 0.253 µM
  relative viability: 0.988
NCI-H1395; first compound 2.53 µM
  relative viability: 1.1
NCI-H1395; first compound 8 µM
  relative viability: 0.929
NCI-H1650; first compound 0.253 µM
  relative viability: 0.421
NCI-H1650; first compound 0.8 µM
  relative viability: 0.432
NCI-H1650; first compound 2.53 µM
  relative viability: 0.551
NCI-H1650; first compound 8 µM
  relative viability: 0.684
NCI-H1666; first compound 0.253 µM
  relative viability: 0.859
NCI-H1666; first compound 0.8 µM
  relative viability: 0.765
NCI-H1666; first compound 2.53 µM
  relative viability: 0.93
NCI-H1666; first compound 8 µM
  relative viability: 0.784
NCI-H1793; first compound 0.253 µM
  relative viability: 0.458
NCI-H1793; first compound 2.53 µM
  relative viability: 0.474
NCI-H1793; first compound 8 µM
  relative viability: 0.451
NCI-H1975; first compound 0.253 µM
  relative viability: 0.388
NCI-H1975; first compound 0.8 µM
  relative viability: 0.201
NCI-H1975; first compound 2.53 µM
  relative viability: 0.36
NCI-H1975; first compound 8 µM
  relative viability: 0.234
NCI-H1993; first compound 0.253 µM
  relative viability: 0.491
NCI-H1993; first compound 0.8 µM
  relative viability: 0.503
NCI-H1993; first compound 2.53 µM
  relative viability: 0.474
NCI-H1993; first compound 8 µM
  relative viability: 0.518
NCI-H2009; first compound 0.253 µM
  relative viability: 0.297
NCI-H2009; first compound 0.8 µM
  relative viability: 0.28
NCI-H2009; first compound 2.53 µM
  relative viability: 0.283
NCI-H2009; first compound 8 µM
  relative viability: 0.28
NCI-H2342; first compound 0.253 µM
  relative viability: 0.796
NCI-H2342; first compound 0.8 µM
  relative viability: 0.894
NCI-H2342; first compound 2.53 µM
  relative viability: 0.739
NCI-H2342; first compound 8 µM
  relative viability: 0.692
NCI-H2347; first compound 0.253 µM
  relative viability: 0.329
NCI-H2347; first compound 0.8 µM
  relative viability: 0.279
NCI-H2347; first compound 2.53 µM
  relative viability: 0.323
NCI-H2347; first compound 8 µM
  relative viability: 0.179
NCI-H358; first compound 0.8 µM
  relative viability: 0.132
NCI-H358; first compound 2.53 µM
  relative viability: 0.133
NCI-H358; first compound 8 µM
  relative viability: 0.19
NCI-H441; first compound 0.253 µM
  relative viability: 0.484
NCI-H441; first compound 0.8 µM
  relative viability: 0.258
NCI-H441; first compound 2.53 µM
  relative viability: 0.623
NCI-H441; first compound 8 µM
  relative viability: 0.387
NCI-H460; first compound 0.253 µM
  relative viability: 0.0785
NCI-H460; first compound 0.8 µM
  relative viability: 0.13
NCI-H460; first compound 2.53 µM
  relative viability: 0.127
NCI-H460; first compound 8 µM
  relative viability: 0.19
NCI-H650; first compound 0.253 µM
  relative viability: 0.983
NCI-H650; first compound 0.8 µM
  relative viability: 1
NCI-H650; first compound 2.53 µM
  relative viability: 0.963
NCI-H650; first compound 8 µM
  relative viability: 0.891
NCI-H727; first compound 0.253 µM
  relative viability: 0.383
NCI-H727; first compound 0.8 µM
  relative viability: 0.378
NCI-H727; first compound 2.53 µM
  relative viability: 0.35
NCI-H727; first compound 8 µM
  relative viability: 0.376
SK-MES-1; first compound 0.253 µM
  relative viability: 0.599
SK-MES-1; first compound 0.8 µM
  relative viability: 0.628
SK-MES-1; first compound 2.53 µM
  relative viability: 0.568
SK-MES-1; first compound 8 µM
  relative viability: 0.578
